Measurements reported in the NIST ThermoML archive (doi:10.1021/je300873x).
± gives the expanded uncertainty stated by the source.

Assay: mn = molality of the nth substance listed, in mol/kg
Details: for surface tension liquid-gas: Pendant drop shape; for electrical conductivity: Liquid, Digital conductivity meter

CCCCCCCCCCCC[N+](C)(C)CCO.[Br-] [dodecyl(2-hydroxyethyl)dimethylammonium bromide] + O
Details	electrical conductivity [S/m]	surface tension liquid-gas [mN/m]
298.15 K, m1 = 0.001	–	68.12 ± 0.61
298.15 K, m1 = 0.00201	–	63.05 ± 0.57
298.15 K, m1 = 0.00402	–	54.51 ± 0.5
298.15 K, m1 = 0.00602	–	49.15 ± 0.46
298.15 K, m1 = 0.00803	–	45.74 ± 0.43
298.15 K, m1 = 0.00949	0.0809 ± 0.0001	–
298.15 K, m1 = 0.00996	0.0847 ± 0.0001	–
298.15 K, m1 = 0.01004	–	42.61 ± 0.41
298.15 K, m1 = 0.01049	0.0889 ± 0.0001	–
298.15 K, m1 = 0.01107	0.0935 ± 0.0001	–
298.15 K, m1 = 0.01172	0.0987 ± 0.0001	–
298.15 K, m1 = 0.01205	–	39.74 ± 0.39
298.15 K, m1 = 0.01246	0.1047 ± 0.0001	–
298.15 K, m1 = 0.01286	0.1079 ± 0.0001	–
298.15 K, m1 = 0.01305	–	38.84 ± 0.38
298.15 K, m1 = 0.01329	0.111 ± 0.0001	–
298.15 K, m1 = 0.01375	0.1138 ± 0.0001	–
298.15 K, m1 = 0.01424	0.116 ± 0.0001	–
298.15 K, m1 = 0.01476	0.1177 ± 0.0001	–
298.15 K, m1 = 0.01506	–	38.78 ± 0.38
298.15 K, m1 = 0.01533	0.1196 ± 0.0001	–
298.15 K, m1 = 0.01595	0.121 ± 0.0001	–
298.15 K, m1 = 0.01661	0.1226 ± 0.0001	–
298.15 K, m1 = 0.01707	–	38.7 ± 0.38
298.15 K, m1 = 0.01733	0.1248 ± 0.0001	–
298.15 K, m1 = 0.01812	0.1264 ± 0.0001	–
298.15 K, m1 = 0.01899	0.1281 ± 0.0001	–
298.15 K, m1 = 0.01994	0.1302 ± 0.0001	–
298.15 K, m1 = 0.02009	–	38.51 ± 0.38
298.15 K, m1 = 0.03014	–	38.4 ± 0.38
298.15 K, m1 = 0.05027	–	38.38 ± 0.38
303.15 K, m1 = 0.00945	0.0886 ± 0.0001	–
303.15 K, m1 = 0.00992	0.093 ± 0.0001	–
303.15 K, m1 = 0.01045	0.0974 ± 0.0001	–
303.15 K, m1 = 0.01103	0.1025 ± 0.0001	–
303.15 K, m1 = 0.01168	0.1068 ± 0.0001	–
303.15 K, m1 = 0.01241	0.1148 ± 0.0001	–
303.15 K, m1 = 0.01281	0.1182 ± 0.0001	–
303.15 K, m1 = 0.01324	0.1212 ± 0.0001	–
303.15 K, m1 = 0.01369	0.1246 ± 0.0001	–
303.15 K, m1 = 0.01418	0.128 ± 0.0001	–
303.15 K, m1 = 0.01471	0.1306 ± 0.0001	–
303.15 K, m1 = 0.01527	0.1326 ± 0.0001	–
303.15 K, m1 = 0.01589	0.1346 ± 0.0001	–
303.15 K, m1 = 0.01655	0.1364 ± 0.0001	–
303.15 K, m1 = 0.01727	0.1386 ± 0.0001	–
303.15 K, m1 = 0.01805	0.1407 ± 0.0001	–
303.15 K, m1 = 0.01892	0.1431 ± 0.0001	–
303.15 K, m1 = 0.01986	0.1451 ± 0.0001	–
308.15 K, m1 = 0.00993	0.1022 ± 0.0001	–
308.15 K, m1 = 0.01046	0.1072 ± 0.0001	–
308.15 K, m1 = 0.01104	0.112 ± 0.0001	–
308.15 K, m1 = 0.01169	0.1179 ± 0.0001	–
308.15 K, m1 = 0.01242	0.1251 ± 0.0001	–
308.15 K, m1 = 0.01282	0.1293 ± 0.0001	–
308.15 K, m1 = 0.01325	0.1334 ± 0.0001	–
308.15 K, m1 = 0.0137	0.1371 ± 0.0001	–
308.15 K, m1 = 0.01419	0.1408 ± 0.0001	–
308.15 K, m1 = 0.01472	0.1443 ± 0.0001	–
308.15 K, m1 = 0.01529	0.1472 ± 0.0001	–
308.15 K, m1 = 0.0159	0.1496 ± 0.0001	–
308.15 K, m1 = 0.01656	0.152 ± 0.0001	–
308.15 K, m1 = 0.01728	0.1541 ± 0.0001	–
308.15 K, m1 = 0.01807	0.1567 ± 0.0001	–
308.15 K, m1 = 0.01893	0.1595 ± 0.0001	–
308.15 K, m1 = 0.01987	0.1621 ± 0.0001	–
313.15 K, m1 = 0.01044	0.1171 ± 0.0001	–
313.15 K, m1 = 0.01102	0.1229 ± 0.0001	–
313.15 K, m1 = 0.01167	0.1298 ± 0.0001	–
313.15 K, m1 = 0.0124	0.1376 ± 0.0001	–
313.15 K, m1 = 0.0128	0.1416 ± 0.0001	–
313.15 K, m1 = 0.01322	0.1461 ± 0.0001	–
313.15 K, m1 = 0.01368	0.1507 ± 0.0001	–
313.15 K, m1 = 0.01417	0.1556 ± 0.0001	–
313.15 K, m1 = 0.01469	0.1595 ± 0.0001	–
313.15 K, m1 = 0.01526	0.1638 ± 0.0001	–
313.15 K, m1 = 0.01587	0.1664 ± 0.0001	–
313.15 K, m1 = 0.01653	0.1694 ± 0.0001	–
313.15 K, m1 = 0.01725	0.1723 ± 0.0001	–
313.15 K, m1 = 0.01803	0.1749 ± 0.0001	–
313.15 K, m1 = 0.01889	0.1783 ± 0.0001	–
313.15 K, m1 = 0.01984	0.1813 ± 0.0001	–
318.15 K, m1 = 0.01042	0.127 ± 0.0001	–
318.15 K, m1 = 0.01099	0.134 ± 0.0001	–
318.15 K, m1 = 0.01164	0.1411 ± 0.0001	–
318.15 K, m1 = 0.01237	0.1496 ± 0.0001	–
318.15 K, m1 = 0.01277	0.1543 ± 0.0001	–
318.15 K, m1 = 0.01319	0.1592 ± 0.0001	–
318.15 K, m1 = 0.01365	0.1643 ± 0.0001	–
318.15 K, m1 = 0.01414	0.1694 ± 0.0001	–
318.15 K, m1 = 0.01466	0.174 ± 0.0001	–
318.15 K, m1 = 0.01523	0.1791 ± 0.0001	–
318.15 K, m1 = 0.01583	0.1838 ± 0.0001	–
318.15 K, m1 = 0.01649	0.1877 ± 0.0001	–
318.15 K, m1 = 0.01721	0.1908 ± 0.0001	–
318.15 K, m1 = 0.018	0.1933 ± 0.0001	–
318.15 K, m1 = 0.01885	0.1973 ± 0.0001	–
318.15 K, m1 = 0.0198	0.2012 ± 0.0001	–
323.15 K, m1 = 0.01039	0.1354 ± 0.0001	–
323.15 K, m1 = 0.01097	0.1447 ± 0.0001	–
323.15 K, m1 = 0.01162	0.1524 ± 0.0001	–
323.15 K, m1 = 0.01234	0.1613 ± 0.0001	–
323.15 K, m1 = 0.01274	0.1661 ± 0.0001	–
323.15 K, m1 = 0.01317	0.1716 ± 0.0001	–
323.15 K, m1 = 0.01362	0.1773 ± 0.0001	–
323.15 K, m1 = 0.01411	0.1832 ± 0.0001	–
323.15 K, m1 = 0.01463	0.1896 ± 0.0001	–
323.15 K, m1 = 0.01519	0.1954 ± 0.0001	–
323.15 K, m1 = 0.0158	0.2012 ± 0.0001	–
323.15 K, m1 = 0.01646	0.2061 ± 0.0001	–
323.15 K, m1 = 0.01717	0.21 ± 0.0001	–
323.15 K, m1 = 0.01795	0.2148 ± 0.0001	–
323.15 K, m1 = 0.01881	0.2187 ± 0.0001	–
323.15 K, m1 = 0.01975	0.2216 ± 0.0001	–
